COc1cc(C(=O)O)cc(OC)c1O
solubility (mole fraction)
Details	283.15 K	288.15 K	293.15 K	298.15 K	303.15 K	308.15 K	313.15 K	318.15 K	323.15 K
in ethanol	0.0115	0.0125	0.0145	0.0169	0.0188	0.0217	0.0251	0.0279	0.0316
in ethyl acetate	0.0007	0.00084	0.001	0.00125	0.00149	0.0018	0.00221	0.0026	0.00323
in ethylene glycol	0.00812	0.00951	0.0113	0.0124	0.0146	0.017	0.0203	0.0235	0.0269
in isopropanol	0.00401	0.00455	0.00545	0.00627	0.00752	0.00853	0.00971	0.0115	0.0131
in methanol	0.0137	0.015	0.0173	0.019	0.0209	0.0238	0.0271	0.0298	0.0331
in n-butanol	0.0032	0.00375	0.00441	0.00518	0.00624	0.00735	0.00832	0.0098	0.0116
in n-hexanol	0.00241	0.00281	0.0033	0.0042	0.0048	0.0058	0.00702	0.00852	0.0101
in sec-butanol	0.00188	0.00223	0.0029	0.00357	0.00432	0.00503	0.00604	0.00737	0.00921
